Measurements as given in patent US8426408B2, “Pyrimidine inhibitors of kinases” (AbbVie Inc., priority 2009, dated 2013).

What was measured:
Assay type in all cases: biochemical
[1] = biological target: KDR (Homo sapiens, UniProt P35968); experiment: KDR HTRF in vitro kinase assay; design: purified enzyme (His6-KDR 789-1354, MW 63 kD); His6 (N); settings: 1 mM ATP; read-out: KDR enzyme inhibition data (Ki)
Description: To determine the activity of the various kinases, a homogenous time-resolved fluorescence (HTRF) in vitro kinase assay was used. (Mathis, G., HTRF® Technology. J Biomol Screen, 1999. 4(6): p. 309-314; Alfred J. Kolb, Paul V. Kaplita, David J. Hayes, Young-Whan Park, Christine Pernell, John S. Major and Gerard Mathis, Drug Discovery Today, 1998, 3, 333-342.)
For example for KDR, 7 ng/well of purified enzyme (His6-KDR 789-1354, MW 63 kD) was mixed with 0.5 μM N-biotinylated substrate (Biotin-Ahx-AEEEYFFLA-amide (SEQ. ID. 1)), various concentrations of inhibitor in reaction buffer (50 mM HEPES, pH 7.1, 10 mM MgCl2, 2 mM MnCl2, 0.1% BSA and 1 mM DTT, 40 L final volume), ATP (1 mM final conc.) in a black 384-well plate. After 60 minutes incubation at room temperature, the reaction was quenched by addition of a buffered EDTA solution (final approximate concentrations: 30 mM EDTA, 0.1% BSA, 0.1% Triton X-100 and 0.24M KF) and a solution of revelation agents (to give 0.084 ng/well streptavidin-XL-665 (Cis-Bio) and 6.5 ng/well antiphsophotyrosine mAb PT66-K Europium kryptate) was added to the reaction mixture. The quenched reaction was allowed to stand at room temperature for 3 hours and was then read in a time-resolved fluorescence detector (InVision, Perkin-Elmer) at 620 nm and 665 nm sequentially with excitation. The ratio between the signal of 620 nm and 665 nm was used in the calculation of the IC50.

[2] = biological target: T1, Aurora B (Homo sapiens, UniProt Q96GD4); experiment: Aurora B enzyme inhibition (time-resolved fluorescence, histone H3 peptide); settings: 1 mM ATP
T1 construct: Active Aurora B enzyme (recombinant residues 1-344)
Description: To determine Aurora B activity of representative compounds of the invention, Active Aurora B enzyme (recombinant residues 1-344) and INCENP (recombinant GST fusion protein (Upstate)) were incubated in wells of a 384 well plate with biotinylated histone H3 peptide residues 1-21 (Upstate), 1 mM ATP, and various concentrations of inhibitors in a HEPES buffer, pH 7.4 containing MgCl2, sodium othrovanadate, and Triton X-100. After 1 hour, the reaction was stopped with EDTA and anti-phospho-histone H3 Europium Cryptate (Cis-Bio) and SA-APC (Phycolink, Prozyme) were added to detect the phosphopeptide. The amount of phosphorylation was determined by the time-resolved fluorescence ratio of signals at 665 nm and 615 nm. The IC50's were calculated by an exponential fit of the inhibition values with the inhibitor concentrations using Assay Explorer software.

[3] = biological target: T2, Aurora A (Homo sapiens, UniProt O14965); experiment: Aurora A enzyme inhibition (time-resolved fluorescence, STK substrate-2); settings: 1 mM ATP
T2 sequence (O14965 1-403): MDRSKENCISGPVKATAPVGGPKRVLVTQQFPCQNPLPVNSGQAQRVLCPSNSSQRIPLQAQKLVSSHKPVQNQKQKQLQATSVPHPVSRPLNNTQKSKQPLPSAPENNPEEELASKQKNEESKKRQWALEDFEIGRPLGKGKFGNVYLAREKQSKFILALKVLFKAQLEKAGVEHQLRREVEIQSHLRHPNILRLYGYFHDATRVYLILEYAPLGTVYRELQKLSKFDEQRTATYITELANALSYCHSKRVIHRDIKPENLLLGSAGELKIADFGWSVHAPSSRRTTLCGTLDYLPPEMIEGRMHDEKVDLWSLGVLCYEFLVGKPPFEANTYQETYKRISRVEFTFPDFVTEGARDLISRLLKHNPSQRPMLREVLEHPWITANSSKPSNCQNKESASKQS
Description: To determine Aurora A and C activity of representative compounds of the invention, Active Aurora A or C enzyme was incubated in wells of a 384 well plate with biotinylated STK substrate-2 (Upstate), 1 mM ATP, and various concentrations of inhibitors in a Hepes buffer, pH 7.4 containing MgCl2, sodium othrovanadate, and Triton X-100. After 1 hour, the reaction was stopped with EDTA and anti-phospho-STK antibody Europium Cryptate (Upstate) and SA-XL665 (Upstate) were added to detect the phosphopeptide. The amount of phosphorylation was determined by the time-resolved fluorescence ratio of signals at 665 nm and 615 nm. The IC50s were calculated by an exponential fit of the inhibition values with the inhibitor concentrations using Assay Explorer software.

Measured: Ki

Chain of KDR (P35968 789-1354): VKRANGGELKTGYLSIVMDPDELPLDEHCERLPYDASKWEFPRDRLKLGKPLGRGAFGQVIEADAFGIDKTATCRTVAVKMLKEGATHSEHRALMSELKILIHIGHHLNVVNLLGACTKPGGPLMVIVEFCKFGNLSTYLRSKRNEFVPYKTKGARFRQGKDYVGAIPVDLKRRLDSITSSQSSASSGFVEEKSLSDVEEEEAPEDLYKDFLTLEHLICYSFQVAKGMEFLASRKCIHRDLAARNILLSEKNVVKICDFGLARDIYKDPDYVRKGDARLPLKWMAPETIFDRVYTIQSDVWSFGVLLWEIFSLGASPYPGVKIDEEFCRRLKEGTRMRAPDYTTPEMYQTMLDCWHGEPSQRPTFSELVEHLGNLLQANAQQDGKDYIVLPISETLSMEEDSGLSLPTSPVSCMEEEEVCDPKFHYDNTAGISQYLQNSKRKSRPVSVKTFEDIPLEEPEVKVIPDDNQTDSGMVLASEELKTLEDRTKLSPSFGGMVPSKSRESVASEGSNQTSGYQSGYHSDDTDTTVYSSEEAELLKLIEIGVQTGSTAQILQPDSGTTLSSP
T1 sequence (Q96GD4 whole entry, the tested form may be a part): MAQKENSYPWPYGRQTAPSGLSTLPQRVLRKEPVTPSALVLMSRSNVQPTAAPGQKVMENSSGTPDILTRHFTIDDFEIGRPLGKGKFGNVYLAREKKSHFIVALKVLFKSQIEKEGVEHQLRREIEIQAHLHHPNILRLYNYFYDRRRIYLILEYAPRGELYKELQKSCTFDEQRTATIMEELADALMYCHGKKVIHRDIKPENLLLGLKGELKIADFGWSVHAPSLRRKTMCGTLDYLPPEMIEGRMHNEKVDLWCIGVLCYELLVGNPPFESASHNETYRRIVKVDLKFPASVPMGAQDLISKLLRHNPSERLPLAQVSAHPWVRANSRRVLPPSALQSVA
T1 sequence (Q9NQS7 826-918 partner limits assumed): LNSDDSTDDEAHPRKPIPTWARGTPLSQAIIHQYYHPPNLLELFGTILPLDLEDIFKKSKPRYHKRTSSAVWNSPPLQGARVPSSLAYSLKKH

NC(=O)[C@@H]1[C@H]2CC[C@H](C2)[C@@H]1Nc1nc(Nc2cnn(CCN3CCOCC3)c2)ncc1Cl.NC(=O)[C@H]1[C@@H]2CC[C@@H](C2)[C@H]1Nc1nc(Nc2cnn(CCN3CCOCC3)c2)ncc1Cl (mixture of isomers) [Example 60, (1R,2S,3R,4S)-3-[(5-chloro-2-{[1-(2-morpholin-4-ylethyl)-1H-pyrazol-4-yl]amino}pyrimidin-4-yl)amino]bicyclo[2.2.1]heptane-2-carboxamide and (1S,2R,3S,4R)-3-[(5-chloro-2-{[1-(2-morpholin-4-ylethyl)-1H-pyrazol-4-yl]amino}pyrimidin-4-yl)amino]bicyclo[2.2.1]heptane-2-carboxamide]
< 100 nM: all assays above

NC(=O)Cn1cc(Nc2ncc(Br)c(N[C@H]3[C@@H](C(N)=O)[C@@H]4C=C[C@H]3C4)n2)cn1 [Example 76, (1S,2S,3R,4R)-3-[(2-{[1-(2-amino-2-oxoethyl)-1H-pyrazol-4-yl]amino}-5-bromopyrimidin-4-yl)amino]bicyclo[2.2.1]hept-5-ene-2-carboxamide]
< 100 nM: all assays above

CCn1cc(Nc2ncc(OC)c(NC3C4C=CC(C4)C3C(N)=O)n2)cn1 (mixture of isomers) [Example 53, (1S,2S,3R,4R)-3-({2-[(1-ethyl-1H-pyrazol-4-yl)amino]-5-methoxypyrimidin-4-yl}amino)bicyclo[2.2.1]hept-5-ene-2-carboxamide and (1R,2R,3S,4S)-3-({2-[(1-ethyl-1H-pyrazol-4-yl)amino]-5-methoxypyrimidin-4-yl}amino)bicyclo[2.2.1]hept-5-ene-2-carboxamide]
< 100 nM: all assays above

Cn1cc(Nc2ncc(C(F)(F)F)c(N[C@@H]3[C@H](C(=O)NCCO)[C@H]4C=C[C@@H]3C4)n2)cn1.Cn1cc(Nc2ncc(C(F)(F)F)c(N[C@H]3[C@@H](C(=O)NCCO)[C@@H]4C=C[C@H]3C4)n2)cn1 (mixture of isomers) [Example 67, (1S,2S,3R,4R)—N-(2-hydroxyethyl)-3-{[2-[(1-methyl-1H-pyrazol-4-yl)amino]-5-(trifluoromethyl)pyrimidin-4-yl]amino}bicyclo[2.2.1]hept-5-ene-2-carboxamide and (1R,2R,3S,4S)—N-(2-hydroxyethyl)-3-{[2-[(1-methyl-1H-pyrazol-4-yl)amino]-5-(trifluoromethyl)pyrimidin-4-yl]amino}bicyclo[2.2.1]hept-5-ene-2-carboxamide]
< 100 nM: all assays above

CN(C)CCn1cc(Nc2ncc(Cl)c(N[C@@H]3[C@H](C(N)=O)[C@H]4C=C[C@@H]3C4)n2)cn1.CN(C)CCn1cc(Nc2ncc(Cl)c(N[C@H]3[C@@H](C(N)=O)[C@@H]4C=C[C@H]3C4)n2)cn1 (mixture of isomers) [Example 33, (1S,2S,3R,4R)-3-{[5-chloro-2-({1-[2-(dimethylamino)ethyl]-1H-pyrazol-4-yl}amino)pyrimidin-4-yl]amino}bicyclo[2.2.1]hept-5-ene-2-carboxamide and (1R,2R,3S,4S)-3-{[5-chloro-2-({1-[2-(dimethylamino)ethyl]-1H-pyrazol-4-yl}amino)pyrimidin-4-yl]amino}bicyclo[2.2.1]hept-5-ene-2-carboxamide]
< 100 nM: all assays above

CC(C)OC(=O)Cn1cc(Nc2ncc(Br)c(N[C@@H]3[C@H](C(N)=O)[C@H]4C=C[C@@H]3C4)n2)cn1.CC(C)OC(=O)Cn1cc(Nc2ncc(Br)c(N[C@H]3[C@@H](C(N)=O)[C@@H]4C=C[C@H]3C4)n2)cn1 (mixture of isomers) [Example 55, isopropyl{4-[(4-{[(1S,2S,3R,4R)-3-(aminocarbonyl)bicyclo[2.2.1]hept-5-ene-2-yl]amino}-5-bromopyrimidin-2-yl)amino]-1H-pyrazol-1-yl}acetate and isopropyl{4-[(4-{[(1R,2R,3S,4S)-3-(aminocarbonyl)bicyclo[2.2.1]hept-5-ene-2-yl]amino}-5-bromopyrimidin-2-yl)amino]-1H-pyrazol-1-yl}acetate]
< 100 nM: all assays above

CCn1cc(Nc2ncc(Cl)c(N[C@H]3[C@@H](C(N)=O)[C@@H]4C=C[C@H]3C4)n2)cn1 [Example 42, (1S,2S,3R,4R)-3-({5-chloro-2-[(1-ethyl-1H-pyrazol-4-yl)amino]pyrimidin-4-yl}amino)bicyclo[2.2.1]hept-5-ene-2-carboxamide]
< 100 nM: all assays above

NC(=O)[C@@H]1[C@H](Nc2nc(Nc3cnn(CCN4CCCC4)c3)ncc2F)[C@H]2C=C[C@@H]1C2.NC(=O)[C@H]1[C@@H](Nc2nc(Nc3cnn(CCN4CCCC4)c3)ncc2F)[C@@H]2C=C[C@H]1C2 (mixture of isomers) [Example 45, (1S,2S,3R,4R)-3-[(5-fluoro-2-{[1-(2-pyrrolidin-1-ylethyl)-1H-pyrazol-4-yl]amino}pyrimidin-4-yl)amino]bicyclo[2.2.1]hept-5-ene-2-carboxamide and (1R,2R,3S,4S)-3-[(5-fluoro-2-{[1-(2-pyrrolidin-1-ylethyl)-1H-pyrazol-4-yl]amino}pyrimidin-4-yl)amino]bicyclo[2.2.1]hept-5-ene-2-carboxamide]
< 100 nM: all assays above

(1S,2S,3R,4R)-3-[(5-chloro-2-{[1-(1-methylpiperidin-4-yl)-1H-pyrazol-4-yl]amino}pyrimidin-4-yl)amino]bicyclo[2.2.1]hept-5-ene-2-carboxamide and (1R,2R,3S,4S)-3-[(5-chloro-2-{[1-(1-methylpiperidin-4-yl)-1H-pyrazol-4-yl]amino}pyrimidin-4-yl)amino]bicyclo[2.2.1]hept-5-ene-2-carboxamide [Example 40]
< 100 nM: all assays above

Cn1cc(Nc2ncc(Cl)c(N[C@@H]3CCC[C@@H]3C(N)=O)n2)cn1.Cn1cc(Nc2ncc(Cl)c(N[C@H]3CCC[C@H]3C(N)=O)n2)cn1 (mixture of isomers) [Example 43, (1S,2R)-2-({5-chloro-2-[(1-methyl-1H-pyrazol-4-yl)amino]pyrimidin-4-yl}amino)cyclopentanecarboxamide and (1R,2S)-2-({5-chloro-2-[(1-methyl-1H-pyrazol-4-yl)amino]pyrimidin-4-yl}amino)cyclopentanecarboxamide]
< 100 nM: all assays above

NC(=O)[C@@H]1[C@H](Nc2nc(Nc3cnn(CCN4CCCCC4)c3)ncc2Br)[C@H]2C=C[C@@H]1C2.NC(=O)[C@H]1[C@@H](Nc2nc(Nc3cnn(CCN4CCCCC4)c3)ncc2Br)[C@@H]2C=C[C@H]1C2 (mixture of isomers) [Example 38, (1S,2S,3R,4R)-3-[(5-bromo-2-{[1-(2-piperidin-1-ylethyl)-1H-pyrazol-4-yl]amino}pyrimidin-4-yl)amino]bicyclo[2.2.1]hept-5-ene-2-carboxamide and (1R,2R,3S,4S)-3-[(5-bromo-2-{[1-(2-piperidin-1-ylethyl)-1H-pyrazol-4-yl]amino}pyrimidin-4-yl)amino]bicyclo[2.2.1]hept-5-ene-2-carboxamide]
< 100 nM: all assays above
